# Data published in patent US10364466B2, “Biological markers for identifying patients for treatment with VEGF antagonists” (Genentech, Inc., priority 2012, dated 2019).
# How the values were obtained:
# VDV gene expression = experiment: Microarray VDV signature expression in pre- and post-treatment biopsies of inflammatory breast cancer patients (Table 3, human IBC Log2FC); format: in vivo; settings: 19 inflammatory breast cancer patients, one dose single agent, 21 days post-treatment; published micro-array data (Wedam et al.)
# From the text: The log2 ratio intensity values from Agilent WMG microarrays and the Robust Multi-array Average (RMA) normalized intensities (also on the logarithmic scale) from Affymetrix Mouse430.2 microarrays were imported into R as expression sets using the package “Biobase,” and a linear model was fitted to each feature using the functions “lmFit” and “eBayes” in the “limma” package. […] The union of these genes was taken as representative of the VEGF-responsive vasculature. The extent to which this VDV gene expression signature varied in other experiments was determined by fitting a linear model to the microarray data using the “limma” package (as above) and calculating the mean of the t-statistics from gene in the signature according to the method of Falcon and Gentleman (Bioinformatics. 23: 257-258, 2007).
# As depicted in Table 3 below, the genes in the VDV signature were ordered by the extent of anti-VEGF response in the human IBC trial. Orthologs between human and mouse were mapped using the Ensembl Biomart, where “Log 2FC” represents the log(2) fold-change of the gene's expression post-Avastin treatment as compared to pre-treatment. The 19 paired patient samples and the murine PNETs were analyzed on Agilent microarrays. […]
# [1] = test system: metastatic colorectal carcinoma (CRC); experiment: NO16966 first-line metastatic colorectal cancer trial, PFS and OS, stratified by 22-gene VDV signature; format: in vivo, human
# Description: Sections from archival tumor samples from patients enrolled in the XELOX treatment arms of NO 16966 were evaluated by a pathologist and high tumor content area macro-dissected for subsequent RNA isolation using the FFPE RNA isolation kit (Roche; 7-10 sections per patient). RNA levels were assessed after cDNA synthesis following standard techniques, with the qPCR protocol on the Fluidigm Biomark platform according to the manufacturer's protocol.
# Quantitative histological data from various animal experiments were plotted using Microsoft Excel software. Student's t test was applied to compare data sets of interest and differences with p values <0.05 were considered significant. 103 biopsies out of 1017 patients from the XELOX (capecitabine and oxaliplatin)-containing arm in the NO16966 trial were analyzed for the gene expression of VDV genes. qRT-PCR values were normalized by the housekeeping genes and relative to a universal reference sample to derive delta-delta Ct values. Subsequently, the delta-delta Ct value of each of the 22 VDV genes was mean centered and variance scaled to a Z-score.
# For each sample i for which all of the VDV genes were analyzed, a VDV signature score (VDVi) was calculated. The VDVi represents a weighted average of z-scores across the analyzed VDV genes and is given by the algorithm:
# [formula] wherein Zg,i is the standardized z-score of the qRT-PCR value for gene g of sample i and n, in this instance, is 22. The VDVi value provides quantitative information regarding the extent to which the expression of a particular set of genes is collectively overexpressed or underexpressed relative to a centered mean.
# To compare the clinical outcomes (PFS and OS) between marker and/or treatment subgroups, log-rank tests and Cox regression were used, with median time calculated by the Kaplan-Meier analysis. All statistical tests were two-sided.
# To test if VDV gene expression could correlate with clinical outcomes, we analyzed VDV gene expression levels in available pre-treatment archival tumor tissue from 103 patients (biomarker evaluable subpopulation) that were enrolled in the XELOX-containing arms. Due to the limited quality and amount of RNA from these clinical samples, gene expression was analyzed in a previously designed and validated “angiogenesis” Fluidigm qRT-PCR chip (FIG. 8B) that included 4 different housekeeping genes (for gene expression normalization), VEGF (as a control), and 22 representative proximal and distal VDV genes comprising: (i) pan-vascular markers such as CD31, CD34, and VE-CADH as indicators of MVD; (ii) key VEGF pathway components and proxVDV genes, including VEGFR-1, VEGFR-2, VEGFR-3, EPHRINB2, NRPs, ESM1, NID2, COL4a2, and LAMA4a; and (iii) additional VDV genes that are components of endothelial signaling pathways and potential modulators of VDV biology, including DLL-4, NOTCH1, ALK1, and EGFL7 (see FIG. 9A for validation of this compacted 22 VDV gene signature).
# [2] = test system: metastatic colorectal carcinoma (CRC); settings: whole NO16966 study, Saltz et al. 2008; cited from earlier work
# [3] = test system: metastatic colorectal carcinoma (CRC); settings: patients with metastatic CRC, Hurwitz et al. 2004; cited from earlier work
# [4] = 103 biomarker evaluable patients, XELOX arms
substance,measurement,setting,value
bevacizumab: recombinant humanized anti-VEGF monoclonal antibody,VDV transcripts post-treatment vs pre-treatment biopsies,VDV gene expression,clear down regulation
same,"OS HR, addition to chemotherapy",[1]; [4],0.45
same,"PFS HR, addition to chemotherapy",[1]; [4],0.59
same,"OS HR, addition to chemotherapy vs chemotherapy alone",[1]; VDV high patients,0.31
same,"PFS HR, addition to chemotherapy vs chemotherapy alone",[1]; VDV high patients,0.36
same,"OS HR, combination with chemotherapy vs chemotherapy alone",[1]; VDV low patients,0.58
same,"PFS HR, combination with chemotherapy vs chemotherapy alone",[1]; VDV low patients,0.88
same,"OS differences (secondary endpoint), addition to chemotherapy",[2],did not reach statistical significance
same,"primary endpoint of PFS, addition to chemotherapy",[2],significantly improved
same,"progression free survival (PFS) and overall survival (OS), combination with chemotherapy",[3],increase
